Assay: Urinary metabolites in 24 h urine by HPLC-MS/MS
Assay type: in vivo, FVB mice
Experimental: The assessment of the urinary elimination after oral and intravenous administration, in the urine fraction collected 24 h post dose, is reported in Table 6. […] To further investigate this issue, we searched for the presence of urinary metabolites in the 24 h urine samples in one mouse per treatment group. We identified at least eight molecules most likely originating from the parent compounds (Table 7; see Supplementary Figure S1 for the hypothesized structures).
Mice were treated with ZST316 and ZST152 using a dose of 60 mg/Kg (oral gavage) and 30 mg/Kg (intravenous bolus). For pharmacokinetic sampling, blood was collected at 15 and 30 min, and 1, 3, 8, and 24 h post dose. Three mice were analyzed per each time point. After the animals were anesthetized with isoflurane, the blood was drained from the retro-orbital plexus into heparinized tubes, and then centrifuged for 10 min at 4000× g at 4 °C to separate plasma. A 24-h urine fraction was collected in three mice for each drug and route of administration. Plasma and urine samples were stored at −20 °C until analysis by HPLC-MS/MS.
[…] chromatography was performed using a series 200 HPLC system (Perkin Elmer, Waltham, MA, USA) under gradient conditions with separation on a HILIC column, 3 µm, 100 A, 2.1 × 150 mm (Waters, Milford, MA, USA), coupled with a 3 µm, 3.9 × 5.0 mm guard column of the same material at the flow rate of 0.2 mL/min. Gradient features: 10% mobile phase (MP) A (NH4HCO2 10 mM, 10% CH3CN, 0.1% HCOOH) and 90% MP B (CH3CN, 0.1% HCOOH) as the initial constant condition; then to 90% MP A in 6 min and the constant condition for 1.5 min. Return to the start condition in 0.5 min and conditioning for 5.5 min. Total run time: 13.5 min. Mass spectrometric detection was performed using an API 4000 triple quadrupole mass spectrometer (SCIEX, Framingham, MA, USA) supplied with a Turbo Ion Spray source set at 350 °C and −4200 V, analyzing biological samples with electrospray ionization (ESI) operating in negative ion mode. Purified air was used as nebulizer gas (Gas 1) and heater gas (Gas 2) and N2 was used as curtain gas and collision activated dissociation gas. They were set to 40, 50, 20, and 4 instrument units (psi), respectively. The declustering potential (DP) was set at −119 V and the collision exit potential (CXP) at –10 V. All parameters of the source were defined by direct infusion of ZST316 and ZST152 1 µg/mL in mobile phase B. The final quantification was carried out in Selected Reaction Monitoring (SRM) with the following transitions: m/z 307.9 → 208.0 (collision energy of −29.5 eV) for ZST316 and m/z 271.9 → 170.9 (collision energy −24.7 eV) for ZST152 (Figure 2 and Figure 3). Data were processed with the software package Analyst 1.6.2 (AB SCIEX).

[1] = after intravenous ZST152, total dose 1.410 mg, mouse #1, 24 h urine
[2] = after oral ZST152, total dose 1.158 mg, mouse #3, 24 h urine
[3] = after intravenous ZST316, total dose 1.326 mg, mouse #1, 24 h urine
[4] = after oral ZST316, total dose 1.308 mg, mouse #3, 24 h urine

With `COCCNC(=N)NCCCC=O` [M2] the “% of Dose recovered in urine” value [1] was 9.05%, the “Amount Recovered in urine” value [1] was 128 µg and the “% of Dose recovered in urine” value [2] was 0.023%. The “Amount Recovered in urine” value [2] was 0.27 µg.
For `COCCNC(=N)NCCC[C@H](O)C(=O)O` [M8], the “% of Dose recovered in urine” value [3] was 0.37%, the “Amount Recovered in urine” value [3] was 4.87 µg and the “% of Dose recovered in urine” value [4] was 4.1%. For the same compound, the “Amount Recovered in urine” value [4] was 53.4 µg.
With `COCCNC(=N)NCCC[C@H](N)C(=O)O` [M7] the “% of Dose recovered in urine” value [1] was 0.13%, the “Amount Recovered in urine” value [1] was 1.77 µg and the “% of Dose recovered in urine” value [3] was 6.5%. The “Amount Recovered in urine” value [3] was 86.1 µg, the “% of Dose recovered in urine” value [2] was 0.22% and the “Amount Recovered in urine” value [2] was 2.58 µg. The “% of Dose recovered in urine” value [4] was 76% and the “Amount Recovered in urine” value [4] was 991 µg.
For `COCCNC(=N)NCCC[C@H](O)C(=O)NC(C)=O` [M9], the “% of Dose recovered in urine” value [3] was 0.32%, the “Amount Recovered in urine” value [3] was 4.28 µg and the “% of Dose recovered in urine” value [4] was 5.4%. For the same compound, the “Amount Recovered in urine” value [4] was 71.0 µg.
In the case of `COCCNC(=N)NCCCC(=O)O` [M4], the “% of Dose recovered in urine” value [1] is reported as 6.6%, the “Amount Recovered in urine” value [1] is reported as 93.3 µg and the “% of Dose recovered in urine” value [3] is reported as 0.66%. The “Amount Recovered in urine” value [3] was 8.71 µg, the “% of Dose recovered in urine” value [2] was 7.6% and the “Amount Recovered in urine” value [2] was 87.8 µg. For the same compound, the “% of Dose recovered in urine” value [4] was 8.2% and the “Amount Recovered in urine” value [4] was 108 µg.
For `COCCNC(=N)N` [M1], the “% of Dose recovered in urine” value [1] was 0.039%, the “Amount Recovered in urine” value [1] was 0.55 µg and the “% of Dose recovered in urine” value [3] was 0.017%. For the same compound, the “Amount Recovered in urine” value [3] was 0.23 µg, the “% of Dose recovered in urine” value [2] was 0.088% and the “Amount Recovered in urine” value [2] was 1.02 µg. The “% of Dose recovered in urine” value [4] was 0.21% and the “Amount Recovered in urine” value [4] was 2.74 µg.
In the case of `COCCNC(=N)NCCCCO` [M3], the “% of Dose recovered in urine” value [1] is reported as 0.19%, the “Amount Recovered in urine” value [1] is reported as 2.62 µg and the “% of Dose recovered in urine” value [2] is reported as 4.2%. For the same compound, the “Amount Recovered in urine” value [2] was 49.1 µg.
For `COCCNC(=N)NCCC[C@H](N)C=NO` [M6], the “% of Dose recovered in urine” value [1] was 0.10%, the “Amount Recovered in urine” value [1] was 1.48 µg and the “% of Dose recovered in urine” value [2] was 0.014%. The “Amount Recovered in urine” value [2] was 0.16 µg.

Source: PMC8840040, “Pharmacokinetic Characterization of the DDAH1 Inhibitors ZST316 and ZST152 in Mice Using a HPLC-MS/MS Method” (Molecules, 2022)
